Measured values taken from ChEMBL document CHEMBL1150210, “Metabolism of the Catharanthus alkaloids: from Streptomyces griseus to monoamine oxidase B” (J Nat Prod, 1992).

Assay: Drug level in mouse liver mitochondria
Type: ADME
Conditions: in vivo

Drug uptake: 18.7%
SMILES: CC[C@]1(O)C[C@@H]2CN(CCc3c([nH]c4ccccc34)[C@@](C(=O)OC)(c3cc4c(cc3OC)N(C)[C@H]3[C@@](O)(C(=O)OC)[C@H](OC(C)=O)[C@]5(CC)C=CCN6CC[C@]43[C@@H]65)C2)C1 [VINBLASTINE]
